# Source: patent publication US20210069169A1, “PHARMACEUTICAL COMPOSITIONS” (priority 2007, published 2021)
# Where two headings read alike, the source gives them in different places.
# Tests used:
# [1] = tested on: postmenopausal women; details: cited from earlier work
# [2] = cited from earlier work
# [3] = tested on: endometrium; assay: ERC-210: endometrial biopsy; format: in vivo, postmenopausal women; details: 3 months intravaginal; biopsies before and after 12 weeks
# Method: Endometrial biopsy was performed at screening and at month 3 at end of study. All biopsies were examined by the same pathologist at the central laboratory (Dr. Robert Dubé, Department of cytology-pathology, Enfant-Jésus Hospital, Quebec City, Canada).
# [4] = tested on: postmenopausal women suffering from vaginal atrophy; assay: ERC-210: vaginal examination (secretions, color, epithelial integrity, thickness); format: in vivo; details: 2, 4, 8 and 12 weeks
# From the text: At the same time intervals of 2, 4, 8 and 12 weeks, the gynecologist or physician in charge of the study at each site performed a vaginal exam to evaluate the degree of severity (none, mild, moderate or severe, analyzed using values of 0, 1, 2 and 3, respectively) for the main signs of vaginal atrophy, namely vaginal secretions, vaginal color, vaginal epithelial integrity and vaginal epithelial surface thickness. […] In fact. the beneficial effects observed by the gynecologist and or physician are almost superimposable to those self-reported by women on their most bothersome symptoms.
# Vaginal examination was performed at screening and then at day 1 and at 2, 4, 8 and 12 weeks. Vaginal secretions, vaginal color, vaginal epithelial integrity and vaginal epithelial surface thickness were evaluated according to the following degrees of severity: none, mild, moderate or severe.
# [5] = ERC-213: serum DHEA and eleven metabolites after daily intravaginal DHEA suppositories; format: in vivo, postmenopausal women; details: highest dose (Table 2)
# From the text: The primary objective of that study was the evaluation of the systemic bioavailability of DHEA and its metabolites following daily intravaginal application of suppositories at four different DHEA concentrations. This study was a randomized, placebo-controlled and double-blind trial of 10-subjects per arm.
# [6] = Example 2: serum steroids after oral DHEA capsules or percutaneous DHEA cream or gel
# From the text: Thirty-six healthy 60-70-year-old postmenopausal women participated in the study after IRB approval and having given their written informed consent. Body weight was within ±20% of normal body weight according to Metropolitan Life Tables.
# This study was a randomized open-label trial of 12 subjects per arm. After written informed consent was obtained and women were found eligible, each subject was randomized to receive DHEA by cream, get or orally. Daily, before breakfast, for 14 days, subjects received, at the research clinic, either 4 g of 10% DHEA gel or 4 g of 10% DHEA cream applied on a total 30 cm×30 cm area of the thighs or two 50 mg capsules of DHEA orally before breakfast.
# Blood sampling was performed at 08:00-09:00 h at screening and before application of DHEA, on the first day of dosing, as well as on days 2, 4, 7, 10 and 14. On the 1st and 14th days, blood samples were obtained at 0.5 h, 1 h, 1.5 h, 2 h, 3 h, 4 h, 5 h, 6 h, 7 h, 8 h, 12 h and 24 h following DHEA administration. […] Serum steroid analysis
# DHEA, DHEA-S, androst-5-ene-3β,17β-diol (5-diol), testosterone, androstenedione (4-dione), 17β-estradiol (E2), estrone (E1), estrone sulfate (E1-S), androsterone glucuronide (ADT-G), and androstane-3,17β-diol glucuronide (3 α-diol-G) were measured by gas chromatography/mass spectrometry (DHEA, 5-diol, 4-dione, testosterone, E1 and E2) using electron impact or chemical ionization and by liquid chromatography/tandem mass spectrometry using turboionspray (DHEA-S, E1-S, ADT-G and 3α-diol-G) as described (Labrie, Bélanger et a., 2006; Labrie, Bélanger, et al, 2007b and Swanson et al. 2007).
# On days 1 and 14, the area under the curve of the serum concentration of each steroid was measured between 0 h and 24 h (AUC0-24 h). The areas under the curves were calculated by a linear trapezoidal method (model-independent). The relative bioavailability of the DHEA gel, DHEA cream and DHEA capsules was based on the mean difference in the log-transformed AUC values, All calculations were performed with the SAS software (SAS Institute, Cary, N.C., USA).
# [7] = oral 150 mg (Buster et al. 1992)
# [8] = oral 300 mg (Buster et al. 1992)
compound,measurement,setting,value
CCCCCCCCCCC(=O)O[C@H]1CC[C@H]2[C@@H]3CCC4=CC(=O)CC[C@]4(C)[C@H]3CC[C@]12C [testosterone undecanoate],Effect on the endometrium,[1]; 40 mg every second day,no effect on the endometrium
C[C@]12CC[C@H](O)CC1=CC[C@@H]1[C@@H]2CC[C@]2(C)C(=O)CC[C@@H]12 [micronized DHEA],Maximal serum DHEA-S,[2]; [7],~10 µg/mL
same,Maximal serum testosterone,[2]; [7],~1.6 ng/mL
same,Maximal serum DHEA,[2]; [8],~15 ng/mL
same,Maximal serum testosterone,[2]; [8],~2.75 ng/mL
CCCCC(=O)O[C@H]1CC[C@H]2[C@@H]3CCc4cc(O)ccc4[C@H]3CC[C@]12C [estradiol valerate],Increase of Ki labeling in endometrium,"[1]; 2 mg/day, 3 months",50%
"C[C@]12CC[C@H](O)CC1=CC[C@@H]1[C@@H]2CC[C@]2(C)C(=O)CC[C@@H]12 [DHEA, dehydroepiandrosterone]",Endometrial histology,[3],no effect on endometrial histology
same,Signs of vaginal atrophy at vaginal exam,[4],highly statistically significant improvement of all four signs of vaginal atrophy
same,Average serum DHEA,[5],4.76 ± 0.42 ng/mL
same,"Higher amount of circulating DHEA-S at same DHEA exposure, oral vs percutaneous","[6]; female, human, serum, po",6.7-9.0 fold
same,"Transformation of DHEA into 4-dione, oral vs percutaneous","[6]; female, human, serum, po",2.70-3.76 times
same,Efficacy of transformation into active androgens,[6]; percutaneous DHEA (DHEA change 406%),52%
"C[C@]12CC[C@@H]3c4ccc(O)cc4CC[C@H]3[C@@H]1CC[C@@H]2O [E2, 17β-estradiol]",% of cases with persisting dyspareunia,"[1]; 25 μg intravaginally, 12 months",12.4%
same,% of patients with pH less than 5,[1]; 12 weeks intravaginal 25 μg E2 (Bachmann et al. 2008),51%
